# Measured values taken from patent US5541194A (priority 1987, dated 1996).
# pIC50: −log10 of the molar value. Like-named read-outs stand apart in the source and are kept apart here.
# How the values were obtained:
# [1] = target: muscarinic receptors; type: binding, Hooded Lister rats; conditions: displacement of 0.27 nM 3H-QNB; rat cerebral cortex membranes; 37° C., 30 min; ^+ tested as the oxalate salt, ^++ tested as the hydrochloride salt
# [2] = target: muscarinic receptors; assay: Radio ligand binding: displacement of muscarinic agonist 3H-Oxotremorine-M (3H-OXO-M) in rat cerebral cortex; parameters: species or system Hooded Lister rats; conditions: displacement of 2 nM 3H-OXO-M; rat cerebral cortex membranes; 37° C., 30 min; 2 mM magnesium chloride; ^+ tested as the oxalate salt, ^++ tested as the hydrochloride salt
SMILES,pIC50 [1],pIC50 [2]
"c1cc(C2CN3CCC2CC3)on1 (racemic) [Example E1, (±) 3-(1,2-Oxazol-5-yl)-1-azabicyclo[2.2.2]octane]",4.81,6.32
"Cc1cc(C2CN3CCC2CC3)on1 (racemic) [Example E6, (±)3-(3-Methyl-1,2-oxazol-5-yl)-1-azabicyclo[2.2.2]octane]",5.37,6.40
"Cc1ncc(C2CN3CCC2CC3)o1 (racemic) [Example E7, (±) 3-(2-Methyl-1,3-oxazol-5-yl)-1-azabicyclo[2.2.2]octane]",5.36,6.98
"c1cc(C2CN3CCC2CC3)co1 (racemic) [Example E10, (±) 3-(Fur-3-yl)-1-azabicyclo[2.2.2]octane]",4.71,6.08
"c1ncc(C2CN3CCC2CC3)o1 (racemic) [Example E11, (±) 3-(1,3-Oxazol-5-yl)-1-azabicyclo[2.2.2]octane]",4.62,6.32
"c1ncc(C2CN3CCC2C3)o1 (racemic) [Example E12, (±) exo and endo-3-(1,3-Oxazol-5-yl)-1-azabicyclo[2.2.1]heptane]",4.54,6.82
"CCc1ncc(C2CN3CCC2C3)o1 (racemic) [Example E14, (±) 3-(2-Ethyl-1,3-oxazol-5-yl)-1-azabicyclo[2.2.1]heptane]",5.02,6.10
"c1coc([C@@H]2CN3CC[C@@H]2C3)c1 (relative stereo) [Example E4, (±) exo-3-(Fur-2-yl)-1-azabicyclo[2.2.1]heptane]",5.15,7.06
"Cc1ccc([C@@H]2CN3CC[C@@H]2C3)o1 (relative stereo) [Example E5, (±) exo-3-(5-Methyl-fur-2-yl)-1-azabicyclo[2.2.1]heptane]",5.49,6.94
"Cc1ncc([C@@H]2CN3CC[C@@H]2C3)o1 (relative stereo) [Example E8A, (±) exo- and endo-3-(2-Methyl-1,3-oxazol-5-yl)-1-azabicyclo[2.2.1]heptane]",5.12,7.62
"Cc1cc([C@@H]2CN3CC[C@@H]2C3)on1 (relative stereo) [Example E9, (±) exo-3-(3-Methyl-1,2-oxazol-5-yl)-1-azabicyclo[2.2.1]heptane]",5.12,6.99
"c1cc([C@@H]2CN3CC[C@@H]2C3)on1 (relative stereo) [Example E13, (±) exo-3-(1,2-Oxazol-5-yl)-1-azabicyclo[2.2.1]heptane]",4.52,6.76
